Measured values reported in patent US20260102377A1, “COMPOSITIONS AND METHODS FOR TREATING MYASTHENIA GRAVIS” (priority 2022, published 2026).
Entries after “also recorded” stand apart in the source; their conditions may differ. Where two headings read alike, the source gives them in different places.

Key:
[1] = tested on: patients with myasthenia gravis; test: Phase IIA clinical trial (Part C): repetitive nerve stimulation (CMAP decrement, nasalis muscle); type: in vivo, human; conditions: for RNS decrement responders / Patients with RNS decrement at baseline who recovered (less than 5% decrement): 3- and 5-hour measurements; for RNS decrement responders: placebo 0%
Procedure: For each subject, the study consisted of three study periods during which subjects received either a single dose of NMD670 400 mg, NMD670 1200 mg, or placebo with a 7-day washout period between visits. On these study visits, subjects were asked to refrain from their regular dose of pyridostigmine (if applicable) from 14 h before dosing until after the last pharmacodynamic measurement on Day 1 (see Table 13: Visit and Assessment Schedule). The cross-over design allowed intra-individual comparison of drug effects versus placebo (see FIG. 16). A balanced design was applied to control for first-order carry-over effects.
Part C was a double-blinded, placebo-controlled, three-way cross-over comparison of two single oral doses of NMD670 in men and women with stable symptomatic myasthenia gravis. 12 patients were enrolled. For each subject, the study consisted of three study periods during which subjects received either a single dose of NMD670 or placebo. On these study visits, subjects were asked to refrain from their regular dose of pyridostigmine (if applicable) for 14 hours before dosing. Single doses were administered in randomized order (400 mg free acid, 1200 mg free acid, or placebo p.o.), with a 7-day washout period between visits (FIG. 16). NMD670/placebo was administered with 240 ml of still water.
RNS uses trains of 10 supramaximal electrical stimuli at 3 and 5 Hz using a Medelec Synergy 11.0. The optimal stimulation site on the skin is identified using inframaximal stimuli, after which the limit of supramaximal intensity is established. The working intensity is about 130% of that threshold. RNS is performed on the facial nerve/nasalis muscle combination. Techniques have been described previously (Niks et al., Muscle & Nerve, 2003, 28(2):236-238; Ruys-Van Oeyen et al., Muscle & Nerve, 2002, 26(2):279-282; Schumm et al., Muscle & Nerve, 1984, 7(2):147-151).
Compound Muscle Action Potentials (CMAPs) were recorded from the nasalis muscle in response to nerve stimulation. Decrement refers to decline in CMAP amplitude during repeated stimulation and indicates neuromuscular transmission failure.

[2] = Phase I clinical trial Part A: pharmacokinetics; type: in vivo; conditions: human; for half-life: read-out: T1/2 (mean ± SD, hr) (converted)
Procedure: • Collect blood (3 mL recommended) onto wet ice (K2EDTA tubes) • Immediately cool blood on crushed wet ice for maximum of 30 minutes • Harvest plasma as quickly as possible using refrigerated centrifuge by centrifuging at 2000 g for 10 minutes at 4° C. • Keep plasma on wet ice and immediately stabilise with 1:1 (v/v) addition of Water: Orthophosphoric Acid (100:2 v/v) prepared using ≥85% orthophosphoric acid and deionised water (e.g. 750 μL plasma+750 μL stabiliser). • Mix sample thoroughly. • Keep the stabilised plasma on wet ice during subsequent steps. • Divide the stabilised plasma into 5×250 μL aliquots in plastic cryotubes. • Store aliquots at nominal −70° C./−80° C. promptly.
• 1. Thaw frozen calibration standards, QC samples, blank matrix and study samples on wet ice. • 2. Vortex-mix all samples thoroughly. • 3. On wet ice aliquot 150 μL of calibration standards, QC samples, study samples, and blanks into a 2 mL 96-well plate. For the reagent blank add the same volume of Water. • 4. On wet ice add 25 μL of Methanol:Water (50:50) to wells containing blanks and the same volume of ISTD intermediate solution to all other wells. • 5. On wet ice add 125 μL of Water to each well. Cap plate and vortex-mix (˜5 minutes, 1000 rpm). • 6. Centrifuge plate (˜3000 g, 3 minutes, room temperature). • 7. Condition SPE plate (Waters Oasis HLB pElution) with 250 μL Methanol. • 8. Condition SPE plate with 250 μL of Water. • 9. Load 250 μL of the sample onto the SPE plate (aspirate from the rim of the cone to avoid any debris collected at the bottom of the well). Pass through using minimum pressure. • 10. Wash SPE plate with 250 μL of Water. • 11. Wash SPE plate with 250 μL of Methanol:Water (5:95). Briefly increase pressure for one minute to ensure sorbent is partially dried. • 12. Elute from SPE plate into a 1.2 mL 96-well plate using 30 μL of Methanol. Stand for one minute then pass through using absolute minimum pressure. • 13. Elute again with another 30 μL of Methanol, collecting into the same plate. Briefly increase pressure for one minute to complete the elution. • 14. Add 125 μL of Ammonium Formate 10 mM (aq):Formic Acid (100:0.3) to each well. Cap plate and vortex mix (˜1 minute, ≥1200 rpm). • 15. Store plate refrigerated prior to analysis.
Subjects received 800 mg NMD670.

healthy subjects = test: Phase I clinical trial Part A: tolerability/safety of single doses
Excerpt: Part A1 tested single doses of NMD670 in a double-blind, randomised, placebo-controlled, partial crossover and dose-escalating design in healthy male subjects (see the WHO International Clinicals Trials Registry Platform study reference NL8692). A total of nine dose levels were investigated in three cohorts of subjects. Each cohort consisted of nine subjects, each subject had three study sessions. Each subject received escalating doses of NMD670 on two occasions and placebo on one occasion, the order will be randomized in a cross-over fashion. Each dose level was randomized in a 6:3 ratio (active vs. placebo).
Therefore, for the remaining 2 doses, a full cross-over design investigating one previously tested dose level was used. […] To determine the effect of food on the exposure of single oral doses of NMD670, dose level 5 was administered in both the fasted and fed condition. Subjects who received dose level 5 returned for a fourth visit in which they received dose level 5 (or matching placebo) in the fed condition, in the same randomization as the chosen dose level in the fasted condition.
Part A2 of the study investigated the safety, tolerability and pharmacokinetics of NMD670 in 8 healthy female subjects of non-childbearing potential, in a randomized, double-blind, placebo-controlled single dose administration of NMD670. Subjects received 800 mg NMD670. Subjects were randomized in a 6:2 ratio (active vs. placebo).
The following endpoints were determined at time points indicated in the Schedule of Assessments. • Serious adverse events (SAEs) and adverse events (AEs) were collected throughout the study at every study visit. • Concomitant medication • Clinical laboratory tests • Haematology • Chemistry • Urinalysis • Coagulation • Vital signs • Pulse Rate (bpm) • Systolic blood pressure (mmHg) • Diastolic blood pressure (mmHg) • Respiratory rate • ECG • Heart Rate (HR) (bpm), PR, QRS, QT, QTcF • 24-hour Holter recording • Hand grip dynamometry • Grip release profile; time profile from 100% maximum voluntary contraction (MVC) to 5% of the 100% MVC

[3] = of a total of 70 AEs, Part A healthy subjects

## C[C@H](Oc1ccc(Br)cc1-c1ccon1)C(=O)O [NMD670, (2S)-2-[4-bromo-2-(1,2-oxazol-3-yl)phenoxy]propanoic acid]
[1]; 400 mg and 1200 mg single doses, nasalis muscle
  Treatment effect on CMAP decrement (continuous measurements): No significant treatment effects and no trends of dose-dependent effects
[1]; 400 mg arm
  RNS decrement responders: 83%
[1]; 400 mg arm, of 6 subjects with decrement at baseline
  Patients with RNS decrement at baseline who recovered (less than 5% decrement): 5 subjects
[1]; 1200 mg arm
  RNS decrement responders: 33%
[1]; 1200 mg arm, of 3 subjects with decrement at baseline
  Patients with RNS decrement at baseline who recovered (less than 5% decrement): 1 subjects
[2]; female, plasma, po, 800 mg, 800 mg (female), single oral dose, read-out: AUC0-infinity (Mean ± SD, h · ng/mL)
  AUC(0-inf): 256 ± 56.2 µg·h/mL
[2]; female, plasma, po, 800 mg, 800 mg (female), single oral dose
  half-life: 5.55 ± 0.55 h
[2]; phase 1 FIH study
  Linearity of PK parameters: approximately linear and predictable
[2]; male, plasma, po, 800 mg, 800 mg fasted (male), single oral dose
  half-life: 5.39 ± 0.82 h
[2]; male, plasma, po, 800 mg, 800 mg fed (male), single oral dose
  half-life: 5.02 ± 1.04 h
Healthy subjects; 1200 mg QD, mild in intensity, resolved spontaneously within a few hours
  Healthy subjects with myotonic symptoms: 2 healthy subjects
Healthy subjects; 1200 mg and 1600 mg single dose, healthy subjects
  AE with dose relationship, reported at the highest dose levels tested: transient myotonia
Healthy subjects; Part A healthy subjects
  Subject discontinuations: no subject discontinuations
Healthy subjects; Part A, 35 healthy subjects, single-ascending dose study
  Total number of AEs reported: 70 AEs
Healthy subjects; Phase 1 clinical study, considered non-clinically significant
  Serum uric acid: dose-dependent decrease in serum uric acid
Healthy subjects; Phase 1 healthy subjects
  Intensity of most AEs: mild and mild in intensity
Healthy subjects; healthy subjects, based on myotonia
  Maximum tolerated dose: 1200 mg QD
Healthy subjects; [3]
  AEs at least possibly drug-related (number): 47 AEs
  AEs at least possibly drug-related (proportion): 67%
Healthy subjects; one healthy subject, single dose 1600 mg, spontaneously and fully resolved within hours, dose escalation stopped
  Myotonia at 1600 mg (intensity): myotonia of moderate intensity; also recorded: moderate in intensity; also recorded: Myotonia of moderate severity
Healthy subjects; single doses 50-1600 mg, healthy subjects
  Serious or severe adverse effects: No serious or severe adverse effects; also recorded: No serious adverse reactions were reported
Healthy subjects; single doses, healthy subjects
  Relationship between increases in NMD670 dose and incidence of participants with AEs: no meaningful relationships
